Test results published in the NIST ThermoML archive (doi:10.1021/je400130b).

Assay: molar heat capacity at constant pressure
Settings: 101.33 kPa, Crystal, Small (less than 1 g) adiabatic calorimetry

O=S(=O)([O-])[O-].[Cu+2].[Cu+2].[Cu+2].[OH-].[OH-].[OH-].[OH-] [copper(II) tetrahydroxide sulfate]
Settings	molar heat capacity at constant pressure [J/K/mol]
144.68 K	141.3
145.22 K	142.14
147.87 K	144.34
148.42 K	144.91
150 K	146.3
151.08 K	147.15
151.63 K	147.79
153.75 K	149.17
154.85 K	150.6
155.89 K	151.01
158.03 K	152.89
158.08 K	153.14
160 K	154.8
160.17 K	154.93
161.31 K	155.76
162.32 K	156.42
164.47 K	158.12
164.54 K	158.38
166.62 K	159.83
167.79 K	161.29
168.77 K	161.72
170 K	162.9
170.92 K	163.42
171.04 K	163.63
173.08 K	165.15
174.3 K	166.52
175.23 K	166.71
177.4 K	168.6
177.57 K	168.98
179.56 K	169.93
180 K	170.9
180.86 K	171.6
181.72 K	171.53
183.88 K	173.5
184.14 K	174.07
186.04 K	174.91
187.43 K	176.58
188.2 K	176.89
190 K	178.5
190.37 K	178.59
190.73 K	179
192.53 K	179.84
194.03 K	181.5
194.69 K	181.95
196.86 K	183.62
197.33 K	184.05
199.04 K	185.07
200 K	185.9
200.64 K	186.38
201.21 K	186.11
203.39 K	188.25
203.96 K	188.7
205.57 K	189.66
207.29 K	191
207.76 K	190.53
209.94 K	192.52
210 K	192.8
210.62 K	193.2
212.16 K	193.78
213.96 K	195.29
214.35 K	195.47
216.54 K	197.08
217.3 K	197.61
218.74 K	198.53
220 K	199.5
220.63 K	199.85
220.93 K	199.41
223.12 K	200.77
223.97 K	202.1
225.3 K	202.74
227.29 K	204.34
227.48 K	203.96
229.65 K	205.76
230 K	206.1
230.62 K	206.56
231.82 K	207.32
233.94 K	208.88
233.99 K	208.88
236.16 K	210.12
237.24 K	210.9
238.32 K	211.49
240 K	212.7
240.47 K	213.05
240.54 K	213.1
242.63 K	214.29
243.84 K	215.04
244.78 K	215.47
246.91 K	216.48
247.12 K	217.09
249.05 K	217.96
250 K	218.9
250.39 K	219.06
251.18 K	219.63
253.31 K	221.05
253.64 K	221.26
255.43 K	222.37
256.89 K	223.31
257.55 K	223.64
259.67 K	224.86
260 K	225.1
260.12 K	225.23
261.78 K	226.04
263.34 K	227.07
263.89 K	227.38
265.99 K	228.04
266.52 K	229.07
268.1 K	229.52
269.68 K	230.88
270 K	231.1
270.18 K	231.01
272.26 K	232.16
272.81 K	232.32
273.15 K	232.9
274.34 K	233.42
275.92 K	234.35
276.41 K	234
278.48 K	235.58
278.99 K	236.21
280 K	236.7
280.47 K	237.16
282.03 K	237.88
282.51 K	238.07
284.55 K	239.1
284.97 K	239.95
286.57 K	240.28
287.96 K	241.21
288.59 K	241.63
290 K	242.2
290.6 K	242.66
290.92 K	242.32
292.61 K	243.54
293.88 K	243.77
294.6 K	244.61
296.58 K	245.63
296.81 K	245.8
298.15 K	246.6
298.56 K	246.66
299.68 K	247.51
300 K	247.6
300.53 K	247.64
302.49 K	248.72
302.54 K	249.04
304.44 K	249.67
305.37 K	250.52
306.39 K	250.6
308.18 K	251.84
308.34 K	251.49
310 K	252.8
310.27 K	252.37
310.97 K	253.24
312.09 K	253.75
313.74 K	254.51
314.01 K	254.23
315.94 K	255.03
316.5 K	255.82
317.86 K	255.92
319.23 K	257.03
319.77 K	256.66
320 K	257.4
321.68 K	257.57
321.95 K	258.16
323.58 K	258.37
